Data published in ChEMBL document CHEMBL1151149, “Antineoplastic agents, 107. Isolation of acteoside and isoacteoside from Castilleja linariaefolia” (1990).
Converted amounts (≈) assume the structure as drawn.

Test system: P388
Assay: Cytotoxicity against mouse P388 cells
Format: functional
Conditions: read-out: ED50 (the source's name)

SMILES | EC50 [µg/mL]
C[C@@H]1O[C@@H](O[C@@H]2[C@@H](O)[C@H](OCCc3ccc(O)c(O)c3)O[C@H](CO)[C@H]2OC(=O)/C=C/c2ccc(O)c(O)c2)[C@H](O)[C@H](O)[C@H]1O [ACETOSIDE] | 2.6 (≈ 4.16 µM)
C[C@@H]1O[C@@H](O[C@@H]2[C@@H](O)[C@H](OCCc3ccc(O)c(O)c3)O[C@H](COC(=O)/C=C/c3ccc(O)c(O)c3)[C@H]2O)[C@H](O)[C@H](O)[C@H]1O [ISOACTEOSIDE] | 10 (≈ 16 µM)
